Measurements from patent US20100267561A1, “HERBICIDAL PYRIDAZINONE DERIVATIVES” (priority 2007, published 2010).

Tests used:
Format in all cases: in vivo
[1] = tested on: rice (Oryza sativa); assay: Test B flooded paddy test plant response
How it was run: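 Rice, umbrella sedge, ducksalad and barnyardgrass at 2-leaf stage; pots flooded to 3 cm, compounds applied into paddy water, depth held throughout. Greenhouse 13 to 15 days, then visual rating vs untreated controls on 0–100 scale (0 no effect, 100 complete control); dash means no test result.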

[2] = tested on: soybean (Glycine max); assay: Test B pre-/postemergence plant response
How it was run: (§1)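 Visual scoring from 0 (no effect) to 100 (complete control) against untreated controls was done 13 to 15 days after greenhouse treatment. Chemicals were formulated in a surfactant-containing non-phytotoxic solvent and applied to soil preemergence or to 1- to 4-leaf (2-18 cm) plants postemergence.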

[3] = tested on: cocklebur (Xanthium strumarium); assay: Test B pre-/postemergence plant response; settings: for Cocklebur plant response rating: 8 g ai/ha
How it was run: as §1

[4] = tested on: woolly cupgrass (Eriochloa villosa); assay: Test B pre-/postemergence plant response
How it was run: as §1

[5] = tested on: wheat (Triticum aestivum); assay: Test B pre-/postemergence plant response
How it was run: as §1

[6] = tested on: large crabgrass (Digitaria sanguinalis); assay: Test B pre-/postemergence plant response
How it was run: as §1

[7] = tested on: downy bromegrass (Bromus tectorum); assay: Test B pre-/postemergence plant response; settings: for Bromegrass, Downy plant response rating: 8 g ai/ha
How it was run: as §1

[8] = tested on: Russian thistle (Salsola iberica); assay: Test B pre-/postemergence plant response; settings: Preemergence; for Russian Thistle plant response rating: scale 0 to 100
How it was run: as §1

[9] = tested on: green foxtail (Setaria viridis); assay: Test B pre-/postemergence plant response
How it was run: as §1

[10] = tested on: goosegrass (Eleusine indica); assay: Test B pre-/postemergence plant response
How it was run: as §1

[11] = tested on: catchweed bedstraw (Galium aparine); assay: Test B pre-/postemergence plant response; settings: Preemergence; for Galium plant response rating: scale 0 to 100
How it was run: as §1

[12] = tested on: pigweed (Amaranthus retroflexus); assay: Test B pre-/postemergence plant response
How it was run: as §1

[13] = tested on: common (oilseed) sunflower (Helianthus annuus); assay: Test B pre-/postemergence plant response; settings: Preemergence; for Sunflower plant response rating: scale 0 to 100
How it was run: as §1

[14] = tested on: velvetleaf (Abutilon theophrasti); assay: Test B pre-/postemergence plant response
How it was run: as §1

[15] = 8 g ai/ha, postemergence, 0-100 scale
[16] = 16 g ai/ha, postemergence, 0-100 scale
[17] = Postemergence, 31 g ai/ha, scale 0 to 100
[18] = Postemergence, 62 g ai/ha, scale 0 to 100, 0 no effect, 100 complete control
[19] = Preemergence, 31 g ai/ha, scale 0 to 100 (0 no effect, 100 complete control)
[20] = Preemergence, 62 g ai/ha, 0 to 100 scale, 0 no effect, 100 complete control
[21] = Preemergence, 8 g ai/ha, scale 0 to 100
[22] = Preemergence, 16 g ai/ha, scale 0 to 100
[23] = Postemergence, 16 g ai/ha, scale 0 to 100
[24] = Preemergence, 16 g ai/ha, scale 0 to 100 (0 no effect, 100 complete control)
[25] = 31 g ai/ha, scale 0 to 100 (0 no effect, 100 complete control)
[26] = 62 g ai/ha, 0 to 100 scale, 0 no effect, 100 complete control

CCc1cc(-c2ccc(C(F)(F)F)cc2)nn1-c1c(O)c(OC)nn(C)c1=O [Compound 66]
Plant response rating, Rice ([1]; Flood (flooded paddy test), 62 g ai/ha, scale 0 to 100, 0 no effect, 100 complete control): 0
Plant response rating, Rice ([1]; Flood (flooded paddy test), 125 g ai/ha, scale 0 to 100, 0 no effect, 100 complete control): 0
Plant response rating, Rice ([1]; Flood (flooded paddy test), 250 g ai/ha, scale 0 to 100, 0 no effect, 100 complete control): 30
Plant response rating, Rice ([1]; Flood, 31 g ai/ha, scale 0 to 100): 0
Soybean plant response rating [2, 15]: 0
Soybean plant response rating [2, 16]: 0
Plant response rating, Soybean [2, 17]: 0
Plant response rating, Soybean [2, 18]: 0
Plant response rating, Soybean [2, 19]: 0
Plant response rating, Soybean [2, 20]: 0
Soybean plant response rating [2, 21]: 0
Soybean plant response rating [2, 22]: 0
Cocklebur plant response rating ([3]; postemergence, 0-100 scale): 0
Plant response rating, Cocklebur [3, 23]: 0
Plant response rating, Cocklebur [3, 17]: 0
Plant response rating, Cocklebur [3, 18]: 0
Plant response rating, Cocklebur [3, 24]: 0
Plant response rating, Cocklebur [3, 19]: 0
Plant response rating, Cocklebur [3, 20]: 0
Cocklebur plant response rating ([3]; Preemergence, scale 0 to 100): 0
Cupgrass, Woolly plant response rating [4, 15]: 90
Plant response rating, Cupgrass, Woolly [4, 23]: 95
Plant response rating, Cupgrass, Woolly [4, 17]: 100
Plant response rating, Cupgrass, Woolly [4, 18]: 100
Plant response rating, Cupgrass, Woolly [4, 19]: 90
Plant response rating, Cupgrass, Woolly [4, 20]: 98
Cupgrass, Woolly plant response rating [4, 21]: 0
Cupgrass, Woolly plant response rating [4, 22]: 80
Wheat plant response rating [5, 15]: 95
Wheat plant response rating [5, 16]: 100
Plant response rating, Wheat [5, 17]: 100
Plant response rating, Wheat [5, 18]: 100
Plant response rating, Wheat [5, 19]: 95
Plant response rating, Wheat [5, 20]: 95
Wheat plant response rating [5, 22]: 90
Crabgrass, Large plant response rating [6, 15]: 70
Plant response rating, Crabgrass, Large [6, 23]: 85
Plant response rating, Crabgrass, Large [6, 17]: 98
Plant response rating, Crabgrass, Large [6, 18]: 100
Plant response rating, Crabgrass, Large [6, 19]: 60
Plant response rating, Crabgrass, Large [6, 20]: 80
Crabgrass, Large plant response rating [6, 21]: 0
Crabgrass, Large plant response rating [6, 22]: 0
Bromegrass, Downy plant response rating ([7]; postemergence, 0-100 scale): 80
Plant response rating, Bromegrass, Downy [7, 23]: 95
Plant response rating, Bromegrass, Downy [7, 17]: 98
Plant response rating, Bromegrass, Downy [7, 18]: 98
Plant response rating, Bromegrass, Downy [7, 24]: 85
Plant response rating, Bromegrass, Downy [7, 19]: 100
Plant response rating, Bromegrass, Downy [7, 20]: 100
Bromegrass, Downy plant response rating ([7]; Preemergence, scale 0 to 100): 85
Plant response rating, Russian Thistle [8, 25]: 0
Plant response rating, Russian Thistle [8, 26]: 0
Russian Thistle plant response rating ([8]; 8 g ai/ha): 0
Russian Thistle plant response rating ([8]; 16 g ai/ha): 0
Foxtail, Green plant response rating [9, 15]: 80
Plant response rating, Foxtail, Green [9, 23]: 100
Plant response rating, Foxtail, Green [9, 17]: 100
Plant response rating, Foxtail, Green [9, 18]: 100
Plant response rating, Foxtail, Green [9, 19]: 100
Plant response rating, Foxtail, Green [9, 20]: 100
Foxtail, Green plant response rating [9, 21]: 98
Foxtail, Green plant response rating [9, 22]: 100
Goosegrass plant response rating [10, 15]: 70
Goosegrass plant response rating [10, 16]: 75
Plant response rating, Goosegrass [10, 17]: 85
Plant response rating, Goosegrass [10, 18]: 98
Plant response rating, Goosegrass [10, 19]: 25
Plant response rating, Goosegrass [10, 20]: 70
Goosegrass plant response rating [10, 21]: 0
Goosegrass plant response rating [10, 22]: 0
Plant response rating, Galium [11, 25]: 0
Plant response rating, Galium [11, 26]: 0
Galium plant response rating ([11]; 8 g ai/ha): 0
Galium plant response rating ([11]; 16 g ai/ha): 0
Pigweed plant response rating [12, 15]: 0
Pigweed plant response rating [12, 16]: 0
Plant response rating, Pigweed [12, 17]: 0
Plant response rating, Pigweed [12, 18]: 0
Plant response rating, Pigweed [12, 19]: 0
Plant response rating, Pigweed [12, 20]: 95
Pigweed plant response rating [12, 21]: 0
Pigweed plant response rating [12, 22]: 0
Plant response rating, Sunflower [13, 25]: 0
Plant response rating, Sunflower [13, 26]: 0
Sunflower plant response rating ([13]; 8 g ai/ha): 0
Sunflower plant response rating ([13]; 16 g ai/ha): 0
Velvetleaf plant response rating [14, 15]: 0
Velvetleaf plant response rating [14, 16]: 0
Plant response rating, Velvetleaf [14, 17]: 0
Plant response rating, Velvetleaf [14, 18]: 0
Plant response rating, Velvetleaf [14, 19]: 0
Plant response rating, Velvetleaf [14, 20]: 0
Velvetleaf plant response rating [14, 21]: 0
Velvetleaf plant response rating [14, 22]: 0
